Reference: US8501754B2, “Quinazolinamide derivatives” (MERCK PATENT GmbH, priority 2007, dated 2013)

Molecular target: Recombinant human HSP90a (Homo sapiens, UniProt P07900)
Experiment: radioligand filter binding test ([3H]17AAG competition) for HSP90 inhibition
Conditions: competition with [3H]17AAG 0.08 μM, HSP90 1.5 μg/assay, 22° C., 30 min
Description: Test Method for the Measurement of HSP90 Inhibitors
The binding of geldanamycin or 17-allylamino-17-demethoxygeldanamycin (17AAG) to HSP90 and competitive inhibition thereof can be utilized in order to determine the inhibitory activity of the compounds according to the invention (Carreras et al. 2003, Chiosis et al. 2002).
In the specific case, a radioligand filter binding test is used. The radioligand used here is tritium-labelled 17-allylaminogeldanamycin, [3H]17AAG. This filter binding test allows a targeted search for inhibitors which interfere with the ATP binding site.
Recombinant human HSP90a (E. coli expressed, 95% purity);
[3H]17AAG (17-allylaminogeldanamycin, [allylamino-2,3-^3H. Specific activity: 1.11×10^12 Bq/mmol (Moravek, MT-1717);
HEPES filter buffer (50 mM HEPES, pH 7.0, 5 mM MgCl2, BSA 0.01%) Multiscreen FB (1 μm) filter plate (Millipore, MAFBNOB 50).
The 96-well microtitre filter plates are firstly irrigated and coated with 0.1% of polyethylenimine.
The test is carried out under the following conditions:
Reaction temperature 22° C.
Reaction time: 30 min., shaking at 800 rpm
50 mM HEPES HCl, pH 7.0, 5 mM MgCl2, 0.01% (w/v) of BSA
At the end of the reaction, the supernatant in the filter plate is removed by suction with the aid of a vacuum manifold (Multiscreen Separation System, Millipore), and the filter is washed twice.
The filter plates are then measured in a beta counter (Microbeta, Wallac) with scintillator (Microscint 20, Packard).
“% of control” is determined from the “counts per minutes” values, and the IC-50 value of a compound is calculated therefrom.

Row | Compound | IC50 [µM]
1 | COCCNCc1ccccc1-c1ccc2nc(N)nc(C(=O)N3Cc4ccccc4C3)c2c1 [Compound A976] | 0.01 to 1
2 | CN1CCN(Cc2ccccc2-c2ccc3nc(N)nc(C(=O)N4Cc5ccccc5C4)c3c2)CC1 [Compound A970, {2-amino-6-[2-(4-methylpiperazin-1-ylmethyl)phenyl]quinazolin-4-yl}-(1,3-dihydroisoindol-2-yl)methanone] | 0.01 to 1
3 | Nc1nc(C(=O)N2Cc3ccccc3C2)c2cc(-c3cc4ccccc4o3)ccc2n1 [Compound A921, 2-Amino-6-(benzofuran-2-yl)-4-(1,3-dihydroisoindol-2-ylcarbonyl)quinazoline] | 1 to 10
4 | Nc1nc(C(=O)Nc2cccc3cccnc23)c2ccccc2n1 [Compound A48] | 1 to 10
5 | Nc1nc(C(=O)N2Cc3ccccc3C2)c2cc(NC3CCC(O)CC3)ccc2n1 (stereo not drawn) [Compound A951] | 1 to 10
6 | CCc1ccc2nc(N)nc(C(=O)N3Cc4ccccc4C3)c2c1 [Compound A97, 2-Amino-6-ethyl-4-(1,3-dihydroisoindol-2-ylcarbonyl)quinazoline] | 0.01 to 1
7 | CN1CCN(S(=O)(=O)c2ccccc2-c2ccc3nc(N)nc(C(=O)N4Cc5ccccc5C4)c3c2)CC1 [Compound A980, {2-amino-6-[2-(4-methylpiperazine-1-sulfonyl)phenyl]quinazolin-4-yl}-(1,3-dihydroisoindol-2-yl)methanone] | 0.01 to 1
8 | CCc1ccc2nc(N)nc(C(=O)N3Cc4ccc(Br)cc4C3)c2c1 [Compound A96, 2-Amino-6-ethyl-4-(5-bromo-1,3-dihydroisoindol-2-ylcarbonyl)quinazoline] | 0.01 to 1
9 | CCc1ccccc1-c1ccc2nc(N)nc(C(=O)N3Cc4ccccc4C3)c2c1 [Compound A924, 2-Amino-6-(2-ethylphenyl)-4-(1,3-dihydroisoindol-2-ylcarbonyl)quinazoline] | 0.01 to 1
10 | Nc1nc(C(=O)N2Cc3ccccc3C2)c2cc(-c3ccccc3S(=O)(=O)N3CCNCC3)ccc2n1 [Compound A981] | 0.01 to 1
11 | NCc1ccccc1-c1ccc2nc(N)nc(C(=O)N3Cc4ccccc4C3)c2c1 [Compound A936] | 1 to 10
12 | CN1CCN(c2ccc3nc(N)nc(C(=O)N4Cc5ccccc5C4)c3c2)CC1 [Compound A941] | 1 to 10
13 | N#Cc1ccccc1-c1ccc2nc(N)nc(C(=O)N3Cc4ccccc4C3)c2c1 [Compound A328] | 0.01 to 1
14 | CCN(CC)C(=O)c1nc(N)nc2ccc(-c3ccccc3)cc12 [Compound A138, 2-Amino-6-phenyl-4-diethylcarbamoylquinazoline] | 1 to 10
15 | Nc1nc(C(=O)N2Cc3ccccc3C2)c2cc(-c3ccc(O)cc3CO)ccc2n1 [Compound A1006] | 0.01 to 1
16 | Nc1nc(C(=O)N2Cc3ccccc3C2)c2cc(-c3ccncc3)ccc2n1 [Compound A922, 2-Amino-6-(pyridin-4-yl)-4-(1,3-dihydroisoindol-2-ylcarbonyl)quinazoline] | 0.01 to 1
17 | CCNCc1ccccc1-c1ccc2nc(N)nc(C(=O)N3Cc4ccccc4C3)c2c1 [Compound A978] | 0.01 to 1
18 | Nc1nc(C(=O)N2Cc3ccccc3C2)c2cc(-c3ccccc3CNC3CCC(O)CC3)ccc2n1 (stereo not drawn) [Compound A977] | 1 to 10
19 | CCN(CC)C(=O)c1nc(N)nc2ccc(C)cc12 [Compound A77, 2-Amino-6-methyl-4-diethylcarbamoylquinazoline] | 1 to 10
20 | Nc1nc(C(=O)N2Cc3ccccc3C2)c2cc(-c3ccccc3OC(F)(F)F)ccc2n1 [Compound A240] | 0.01 to 1
21 | CC(C)c1ccc2nc(N)nc(C(=O)N3Cc4ccccc4C3)c2c1 [Compound A118, 2-Amino-6-isopropyl-4-(1,3-dihydroisoindol-2-ylcarbonyl)quinazoline] | 1 to 10
22 | Nc1nc(C(=O)N2Cc3ccccc3C2)c2cc(-c3ccccc3O)ccc2n1 [Compound A335, [2-amino-6-(2-hydroxyphenyl)quinazolin-4-yl]-(1,3-dihydroisoindol-2-yl)methanone] | 0.01 to 1
23 | CCNC(=O)c1ccc2nc(N)nc(C(=O)N(CC)CC)c2c1 [Compound A140, 2-Amino-6-ethylcarbamoyl-4-diethylcarbamoylquinazoline] | > 10
24 | Nc1nc(C(=O)N2Cc3ccccc3C2)c2cc(Oc3ccccc3)ccc2n1 [Compound A946] | 0.01 to 1
25 | Nc1nc(C(=O)N2Cc3ccccc3C2)c2cc(NC3CCCCC3)ccc2n1 [Compound A949] | 0.01 to 1
26 | Nc1nc(C(=O)N2Cc3ccccc3C2)c2cc(N3CCN(C(=O)OCc4ccccc4)CC3)ccc2n1 [Compound A939] | 0.01 to 1
27 | CN1CCN(Cc2cc(O)ccc2-c2ccc3nc(N)nc(C(=O)N4Cc5ccccc5C4)c3c2)CC1 [Compound A1002] | 0.01 to 1

Row | Compound | IC50 [µM]
28 | Nc1nc(C(=O)N2Cc3ccccc3C2)c2cc(-c3ccccc3CN3CCOCC3)ccc2n1 [Compound A974] | 0.01 to 1
29 | 2-Amino-4-propylethylcarbamoylquinazoline [Compound A11] | 1 to 10
30 | CNCc1ccccc1-c1ccc2nc(N)nc(C(=O)N3Cc4ccccc4C3)c2c1 [Compound A933] | 0.01 to 1
31 | CCN(CC)C(=O)c1nc(N)nc2ccccc12 [Compound A7, 2-Amino-4-diethylcarbamoylquinazoline] | > 10
32 | NC(=O)c1ccccc1-c1ccc2nc(N)nc(C(=O)N3Cc4ccccc4C3)c2c1 [Compound A310] | 0.01 to 1
33 | CN(Cc1ccc(F)cc1)C(=O)c1nc(N)nc2ccccc12 [Compound A73, 2-Amino-4-[(4-fluorobenzyl)methylcarbamoyl]quinazoline] | > 10
34 | CNC(=O)c1nc(N)nc2ccccc12 [Compound A1, 2-amino-4-methylcarbamoylquinazoline] | > 10
35 | Nc1nc(C(=O)N2Cc3ccccc3C2)c2cc(C#CCO)ccc2n1 [Compound A964, 2-amino-6-(3-hydroxyprop-1-ynyl)-4-(1,3-dihydroisoindol-2-ylcarbonyl)quinazoline] | 0.01 to 1
36 | CN(C)CCCNc1ccc2nc(N)nc(C(=O)N3Cc4ccccc4C3)c2c1 [Compound A940] | > 10
37 | COc1ccc(Cl)cc1CN(C)C(=O)c1nc(N)nc2ccccc12 [Compound A72, 2-Amino-4-[(3-chloro-6-methoxybenzyl)methylcarbamoyl]quinazoline] | > 10
38 | Nc1nc(C(=O)Nc2ccccc2-c2ccccc2)c2ccccc2n1 [Compound A46] | 1 to 10
39 | CCc1ccc2nc(N)nc(C(=O)N3Cc4ccc(O)cc4C3)c2c1 [Compound A95, 2-Amino-6-ethyl-4-(5-hydroxy-1,3-dihydroisoindol-2-ylcarbonyl)quinazoline] | 1 to 10
40 | N#CCc1ccccc1-c1ccc2nc(N)nc(C(=O)N3Cc4ccccc4C3)c2c1 [Compound A344a] | 0.01 to 1
41 | Nc1nc(C(=O)N2Cc3ccccc3C2)c2cc(Br)ccc2n1 [Compound A125, 2-Amino-6-bromo-4-(1,3-dihydroisoindol-2-ylcarbonyl)quinazoline] | 1 to 10
42 | C#CCCNC(=O)c1nc(N)nc2ccccc12 [Compound A19, 2-Amino-4-propargylmethylcarbamoylquinazoline] | > 10
43 | Nc1nc(C(=O)N2Cc3ccccc3C2)c2cc(-c3ccccc3C=O)ccc2n1 [Compound A969, 2-[2-amino-4-(1,3-dihydroisoindole-2-carbonyl)quinazolin-6-yl]benzaldehyde] | 0.01 to 1
44 | CN(C)Cc1ccccc1-c1ccc2nc(N)nc(C(=O)N3Cc4ccccc4C3)c2c1 [Compound A975] | 0.01 to 1
45 | CCCN(C)C(=O)c1nc(N)nc2ccccc12 [Compound A10, 2-Amino-4-propylmethylcarbamoylquinazoline] | > 10
46 | Nc1nc(C(=O)N2Cc3ccccc3C2)c2cc(-c3ccncc3)ccc2n1 [Compound A923, 2-Amino-6-(pyridin-4-yl)-4-(1,3-dihydroisoindol-2-ylcarbonyl)quinazoline] | 1 to 10
47 | N#CCc1cccc(-c2ccc3nc(N)nc(C(=O)N4Cc5ccccc5C4)c3c2)c1 [Compound A919, 2-Amino-6-(3-cyanomethylphenyl)-4-(1,3-dihydroisoindol-2-ylcarbonyl)quinazoline] | 0.01 to 1
48 | CC(C)c1ccc2nc(N)nc(C(=O)N3Cc4ccc(Br)cc4C3)c2c1 [Compound A117, 2-Amino-6-isopropyl-4-(5-bromo-1,3-dihydroisoindol-2-ylcarbonyl)quinazoline] | 1 to 10
49 | Nc1nc(C(=O)Nc2cccc3c2CCCC3)c2ccccc2n1 [Compound A50] | 1 to 10
50 | CN(C)CCNCc1ccccc1-c1ccc2nc(N)nc(C(=O)N3Cc4ccccc4C3)c2c1 [Compound A973] | 0.01 to 1
51 | Nc1nc(C(=O)N2Cc3ccccc3C2)c2cc(-c3ccccc3CN3CCNCC3)ccc2n1 [Compound A971] | 0.01 to 1
52 | CC(C)N(C)C(=O)c1nc(N)nc2ccccc12 [Compound A8, 2-Amino-4-isopropylmethylcarbamoylquinazoline] | > 10
53 | CN(C)CCN(C)S(=O)(=O)c1ccccc1-c1ccc2nc(N)nc(C(=O)N3Cc4ccccc4C3)c2c1 [Compound A982] | 0.01 to 1
54 | Nc1nc(C(=O)N2Cc3ccccc3C2)c2cc(-c3ccccc3CNCCO)ccc2n1 [Compound A972] | 0.01 to 1
